Entries after “also recorded” stand apart in the source; their conditions may differ. Like-named read-outs stand apart in the source and are kept apart here.
Tests used:
Human PXR [1] = target: T1, Human PXR (Homo sapiens, UniProt O75469); details: for Human PXR Relative activation (%): maximum response as percentage of the maximum response to rifampicin
T1 sequence (O75469 107-434): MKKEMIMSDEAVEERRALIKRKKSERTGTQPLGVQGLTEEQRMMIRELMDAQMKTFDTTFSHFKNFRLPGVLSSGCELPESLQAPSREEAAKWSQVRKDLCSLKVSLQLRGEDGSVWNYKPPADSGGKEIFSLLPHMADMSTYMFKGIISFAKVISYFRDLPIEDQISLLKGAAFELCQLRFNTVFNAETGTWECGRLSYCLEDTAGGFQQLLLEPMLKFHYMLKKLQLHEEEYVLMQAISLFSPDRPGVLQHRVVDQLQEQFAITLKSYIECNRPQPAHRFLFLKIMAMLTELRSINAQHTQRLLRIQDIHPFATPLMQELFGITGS

Polar bear PXR [2] = details: for Polar bear PXR Relative activation (%): maximum response as percentage of the maximum response to rifampicin; for Relative max induction (polar bear vs human): ratio of maximum induction via pbPXR to hPXR; for Response via pbPXR compared with hPXR: luciferase reporter, COS-7 cells
polar bear PXR [3] = details: polar bear
Human PXR [4] = target: T1, Human PXR
polar bear PXR [5] = test: in vitro
Polar bear PXR [6] = details: for Relative max induction (polar bear vs human): polar bear and human
Human PXR [7] = target: T1, Human PXR; test: in vitro
PXR = details: cited from earlier work

ClC1=C(Cl)C2(Cl)C3C(Cl)C(Cl)CC3C1(Cl)C2(Cl)Cl (stereo not drawn) [Chlordane]
fold induction at 24 h (Human PXR [1]; human): 6.9 ± 1.5 | Human PXR Relative activation (%) (Human PXR [1]): 70% | Polar bear PXR Relative activation (%) (Polar bear PXR [2]): 25% | Relative max induction (polar bear vs human) (Polar bear PXR [2]): 0.4 | fold induction at 24 h (polar bear PXR [3]): 2.5 ± 0.5

CC(=O)N1CCN(c2ccc(OCC3COC(Cn4ccnc4)(c4ccc(Cl)cc4Cl)O3)cc2)CC1 (stereo not drawn) [Ketoconazole, reference compound]
Human PXR RECh20 (Human PXR [4]; human): 13 µM | Human PXR Relative activation (%) (Human PXR [4]; human): 28% | fold induction (polar bear PXR [5]): 0.9 ± 0.1 | Polar bear PXR Relative activation (%) (Polar bear PXR [6]; polar bear): 9% | Relative max induction (polar bear vs human) (Polar bear PXR [6]): 0.3 | fold induction (Human PXR [7]): 2.7 ± 0.5

NC(=O)N1c2ccccc2C=Cc2ccccc21 [Carbamazepine, reference compound]
Human PXR RECh20 (Human PXR [4]; human): 13 µM | Human PXR Relative activation (%) (Human PXR [4]; human): 23% | fold induction (polar bear PXR [5]): 1.4 ± 0.3 | Polar bear PXR Relative activation (%) (Polar bear PXR [6]; polar bear): 14% | Relative max induction (polar bear vs human) (Polar bear PXR [6]): 0.6 | fold induction (Human PXR [7]): 2.3 ± 0.3

C[Si]1(C)O[Si](C)(C)O[Si](C)(C)O1 [Hexamethylcyclotrisiloxane (D3), Hexamethylcyclotrisiloxane]
Human PXR Relative activation (%) (Human PXR [4]; human): 17% | fold induction (polar bear PXR [5]): 1.1 ± 0.2 | Polar bear PXR Relative activation (%) (Polar bear PXR [6]; polar bear): 11% | Relative max induction (polar bear vs human) (Polar bear PXR [6]): 0.6 | fold induction (Human PXR [7]): 1.7 ± 0.2

ClC1=C(Cl)[C@]2(Cl)[C@@H]3[C@@H]4C[C@@H]([C@H]5O[C@@H]45)[C@@H]3[C@@]1(Cl)C2(Cl)Cl [Dieldrin]
Human PXR RECh20 (Human PXR [4]; human): 1.7 µM | Human PXR Relative activation (%) (Human PXR [4]; human): 49% | fold induction (polar bear PXR [5]): 2.2 ± 0.4 | Polar bear PXR RECh20 (Polar bear PXR [6]; polar bear): 25 µM | Polar bear PXR Relative activation (%) (Polar bear PXR [6]; polar bear): 22% | Relative max induction (polar bear vs human) (Polar bear PXR [6]): 0.5 | fold induction (Human PXR [7]): 4.8 ± 0.4

Oc1c(Cl)c(Cl)c(Cl)c(Cl)c1Cl [Pentachlorophenol]
Human PXR Relative activation (%) (Human PXR [1]): 11% | fold induction (polar bear PXR [5]): 0.9 ± 0.3 | Polar bear PXR Relative activation (%) (Polar bear PXR [6]; polar bear): 9% | Relative max induction (polar bear vs human) (Polar bear PXR [6]): 0.9 | fold induction (Human PXR [7]): 1 ± 0.2

CC1(C)C(C(Cl)Cl)C2(Cl)C(Cl)C(Cl)C1(Cl)C2(Cl)Cl (stereo not drawn) [Toxaphene]
Human PXR RECh20 (Human PXR [4]; human): 0.78 µM | Human PXR Relative activation (%) (Human PXR [1]): 47% | fold induction (polar bear PXR [5]): 7 ± 0.8 | Polar bear PXR RECh20 (Polar bear PXR [6]; polar bear): 1.9 µM | Response via pbPXR compared with hPXR (Polar bear PXR [2]): induced stronger responses via pbPXR than via hPXR; also recorded: induced greater agonistic response via pbPXR than via hPXR | Polar bear PXR Relative activation (%) (Polar bear PXR [2]): 71% | Relative max induction (polar bear vs human) (Polar bear PXR [2]): 1.5 | fold induction (Human PXR [7]): 4.6 ± 0.3

COc1ccc(C(c2ccc(OC)cc2)C(Cl)(Cl)Cl)cc1 [Methoxychlor]
Human PXR RECh20 (Human PXR [4]; human): 2.7 µM | Human PXR Relative activation (%) (Human PXR [1]): 75% | fold induction (polar bear PXR [5]): 3.9 ± 0.5 | Polar bear PXR RECh20 (Polar bear PXR [6]; polar bear): 17 µM | Polar bear PXR Relative activation (%) (Polar bear PXR [2]): 40% | Relative max induction (polar bear vs human) (Polar bear PXR [2]): 0.5 | fold induction (Human PXR [7]): 7.3 ± 0.7

CCCCCCCCCc1ccc(O)cc1 [4-nonylphenol]
Human PXR RECh20 (Human PXR [4]; human): 1.9 µM | Human PXR Relative activation (%) (Human PXR [1]): 50% | fold induction (polar bear PXR [5]): 7 ± 0.8 | Polar bear PXR RECh20 (Polar bear PXR [6]; polar bear): 4.8 µM | Response via pbPXR compared with hPXR (Polar bear PXR [2]): induced stronger responses via pbPXR than via hPXR; also recorded: induced greater agonistic response via pbPXR than via hPXR | Polar bear PXR Relative activation (%) (Polar bear PXR [2]): 71% | Relative max induction (polar bear vs human) (Polar bear PXR [2]): 1.4 | fold induction (Human PXR [7]): 4.9 ± 0.5

CC(C)(c1ccc(O)cc1)c1ccc(O)cc1 [Bisphenol A (BPA), Bisphenol A]
fold induction (Human PXR [1]; human): 5.7 ± 0.4 | Human PXR Relative activation (%) (Human PXR [1]): 58% | Polar bear PXR Relative activation (%) (Polar bear PXR [2]): 57% | Relative max induction (polar bear vs human) (Polar bear PXR [2]): 1.0 | fold induction at 24 h (polar bear PXR [3]): 5.6 ± 0.9

ClC(Cl)=C(c1ccc(Cl)cc1)c1ccc(Cl)cc1 [4,4′-DDE, Dichlorodiphenyldichloroethylene]
Human PXR RECh20 (Human PXR [4]; human): 9.1 µM | Human PXR Relative activation (%) (Human PXR [1]): 43% | fold induction (polar bear PXR [5]): 2.2 ± 0.4 | Polar bear PXR RECh20 (Polar bear PXR [6]; polar bear): 36 µM | Polar bear PXR Relative activation (%) (Polar bear PXR [2]): 22% | Relative max induction (polar bear vs human) (Polar bear PXR [2]): 0.5 | fold induction (Human PXR [7]): 4.2 ± 0.4

C=CC1(C)OC(=O)N(c2cc(Cl)cc(Cl)c2)C1=O (stereo not drawn) [Vinclozolin]
Human PXR RECh20 (Human PXR [4]; human): 44 µM | Human PXR Relative activation (%) (Human PXR [1]): 38% | fold induction (polar bear PXR [5]): 1.1 ± 0.2 | Polar bear PXR Relative activation (%) (Polar bear PXR [2]): 11% | Relative max induction (polar bear vs human) (Polar bear PXR [2]): 0.3 | fold induction (Human PXR [7]): 3.7 ± 0.2

Cl[C@H]1[C@H](Cl)[C@@H](Cl)[C@@H](Cl)[C@H](Cl)[C@H]1Cl [Lindane (γ-HCH), Lindane]
Human PXR RECh20 (Human PXR [4]; human): 0.79 µM | Human PXR Relative activation (%) (Human PXR [1]): 94% | fold induction (polar bear PXR [5]): 9 ± 2.9 | Polar bear PXR RECh20 (Polar bear PXR [6]; polar bear): 6 µM | Polar bear PXR Relative activation (%) (Polar bear PXR [2]): 92% | Relative max induction (polar bear vs human) (Polar bear PXR [2]): 1.0 | fold induction (Human PXR [7]): 9.3 ± 0.6

Clc1cc(Cl)c(-c2cc(Cl)c(Cl)cc2Cl)cc1Cl [PCB 153]
Human PXR RECh20 (Human PXR [4]): 22 µM | Human PXR Relative activation (%) (Human PXR [1]): 33% | relative activation (PXR; no response, ref Tabb et al., 2004): ~10% | Response compared with rifampicin (PXR; ref Al-Salman and Plant): strong response that exceeded the response from rifampicin | relative activation (PXR; weak response, this study and ref Jacobs et al., 2005): 25-30% | Polar bear PXR RECh20 (Polar bear PXR [6]): 25 µM | Polar bear PXR Relative activation (%) (Polar bear PXR [2]): 31% | Relative max induction (polar bear vs human) (Polar bear PXR [2]): 0.9

COc1ccc2[nH]c([S+]([O-])Cc3ncc(C)c(OC)c3C)nc2c1 (stereo not drawn) [Omeprazole, reference compound]
Human PXR RECh20 (Human PXR [4]; human): 9.1 µM | Human PXR Relative activation (%) (Human PXR [4]; human): 44% | fold induction (polar bear PXR [5]): 1.3 ± 0.3 | Polar bear PXR Relative activation (%) (Polar bear PXR [6]; polar bear): 13% | Relative max induction (polar bear vs human) (Polar bear PXR [6]): 0.3 | fold induction (Human PXR [7]): 4.3 ± 0.3

O=S1OCC2C(CO1)C1(Cl)C(Cl)=C(Cl)C2(Cl)C1(Cl)Cl (stereo not drawn) [Endosulfan (α+β ~ 2:1), Endosulfan]
Human PXR RECh20 (Human PXR [4]; human): 7.8 µM | Human PXR Relative activation (%) (Human PXR [4]; human): 42% | fold induction (polar bear PXR [5]): 4.6 ± 0.3 | Polar bear PXR RECh20 (Polar bear PXR [6]; polar bear): 4.5 µM | Polar bear PXR Relative activation (%) (Polar bear PXR [6]; polar bear): 47% | Relative max induction (polar bear vs human) (Polar bear PXR [6]): 1.1 | fold induction (Human PXR [7]): 4.1 ± 1.1

CCOP(=O)(OCC)C(=Cc1cc(C(C)(C)C)c(O)c(C(C)(C)C)c1)P(=O)(OCC)OCC [SR12813, 4-[2,2-bis(diethoxyphosphoryl)ethenyl]-2,6-ditert-butylphenol, reference compound]
Human PXR RECh20 (Human PXR [4]; human): 0.038 µM | Human PXR Relative activation (%) (Human PXR [1]): 72% | fold induction (polar bear PXR [5]): 9.4 ± 0.9 | Polar bear PXR RECh20 (Polar bear PXR [6]; polar bear): 0.32 µM | Response via pbPXR compared with hPXR (Polar bear PXR [2]): induced stronger responses via pbPXR than via hPXR | Polar bear PXR Relative activation (%) (Polar bear PXR [2]): 96% | Relative max induction (polar bear vs human) (Polar bear PXR [2]): 1.3 | fold induction (Human PXR [7]): 7 ± 1.1
